Test results as given in BindingDB's records for PubMed 8632757 (Merck Sharp & Dohme Research Laboratories, 1996).

How the values were obtained:
[1] = target: Gamma-aminobutyric acid receptor subunit alpha-6 (Homo sapiens, UniProt Q16445)
[2] = target: T1, Gamma-aminobutyric acid receptor subunit alpha-1 (Homo sapiens, UniProt P14867)
T1 sequence (P14867 whole entry): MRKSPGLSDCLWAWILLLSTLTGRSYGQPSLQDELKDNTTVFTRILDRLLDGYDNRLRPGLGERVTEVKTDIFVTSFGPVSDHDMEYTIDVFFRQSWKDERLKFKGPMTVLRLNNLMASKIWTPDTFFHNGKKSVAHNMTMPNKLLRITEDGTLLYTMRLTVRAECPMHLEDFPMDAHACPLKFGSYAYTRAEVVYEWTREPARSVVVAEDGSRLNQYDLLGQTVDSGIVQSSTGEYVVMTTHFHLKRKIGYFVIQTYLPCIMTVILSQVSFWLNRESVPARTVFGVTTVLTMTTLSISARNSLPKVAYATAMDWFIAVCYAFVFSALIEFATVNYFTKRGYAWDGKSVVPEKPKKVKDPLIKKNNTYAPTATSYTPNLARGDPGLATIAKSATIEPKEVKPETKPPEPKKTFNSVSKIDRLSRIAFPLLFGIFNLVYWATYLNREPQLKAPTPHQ

Gamma-aminobutyric acid receptor subunit alpha-6, sequence (Q16445 whole entry): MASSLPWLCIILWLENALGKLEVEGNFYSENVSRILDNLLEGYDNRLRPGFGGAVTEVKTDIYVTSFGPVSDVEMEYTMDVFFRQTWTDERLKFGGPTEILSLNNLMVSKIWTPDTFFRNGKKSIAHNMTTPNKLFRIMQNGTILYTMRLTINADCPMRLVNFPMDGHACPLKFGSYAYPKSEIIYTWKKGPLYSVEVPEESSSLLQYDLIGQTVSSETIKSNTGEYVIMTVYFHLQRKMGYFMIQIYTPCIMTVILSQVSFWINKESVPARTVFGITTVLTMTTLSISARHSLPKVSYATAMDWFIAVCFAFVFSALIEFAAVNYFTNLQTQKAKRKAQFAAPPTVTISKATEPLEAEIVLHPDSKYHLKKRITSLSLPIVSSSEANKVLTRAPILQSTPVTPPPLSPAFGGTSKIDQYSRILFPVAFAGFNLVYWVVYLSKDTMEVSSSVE

SMILES | Ki [1] [µM] | Ki [2] [µM]
Cc1nnc2n1-c1ccc(Cl)cc1C(c1ccccc1Cl)=NC2 [Halcion] | > 10 | 
Cc1nnc2ccc(-c3cccc(C(F)(F)F)c3)nn12 | > 10 | 0.0895
CCc1c(C(=O)OC)ncc2[nH]c3cc(OC)c(OC)cc3c12 [NSC_104999] | 0.134 | 0.0112
COC(=O)c1cc2c(cn1)[nH]c1ccccc12 | 2.05 | 0.001
CC(C)c1nc(-c2ncn3c2CN(C)C(=O)c2c(Cl)cccc2-3)no1 [FG 8205] | 0.227 | 0.00068
CN1C(=O)CN=C(c2ccccc2)c2cc(Cl)ccc21 | > 10 | 
CC(C)(C)OC(=O)c1ncn2c1C1CCCN1C(=O)c1c(Br)cccc1-2 (stereo not drawn) [8-Bromo-7-oxo-3b,4,5,6-tetrahydro-7H-2,6a,11b-triaza-benzo[g]cyclopenta[e]azulene-3-carboxylic acid tert-butyl ester] | 0.0127 | 
CCOC(=O)c1ncn2c1CN(C)C(=O)c1cc(N=[N+]=[N-])ccc1-2 [RO-154513] |  | 0.0026
Cc1ccc(-c2nc3ccc(C)cn3c2CC(=O)N(C)C)cc1 [Ambien] | > 10 | 
